In patent US10414740B2, “Glutaminase inhibitors and method of use” (Agios Pharmaceuticals, Inc., priority 2012, dated 2019):

molecular target: T1, glutaminase (GAC) (Homo sapiens, UniProt O94925); test: glutaminase coupled endpoint assay (Example A); type: biochemical; settings: inhibition of glutaminase; IC50 tested in an assay of Example A or Example B
T1 sequence (O94925 55-598 isoform O94925-3 limits assumed): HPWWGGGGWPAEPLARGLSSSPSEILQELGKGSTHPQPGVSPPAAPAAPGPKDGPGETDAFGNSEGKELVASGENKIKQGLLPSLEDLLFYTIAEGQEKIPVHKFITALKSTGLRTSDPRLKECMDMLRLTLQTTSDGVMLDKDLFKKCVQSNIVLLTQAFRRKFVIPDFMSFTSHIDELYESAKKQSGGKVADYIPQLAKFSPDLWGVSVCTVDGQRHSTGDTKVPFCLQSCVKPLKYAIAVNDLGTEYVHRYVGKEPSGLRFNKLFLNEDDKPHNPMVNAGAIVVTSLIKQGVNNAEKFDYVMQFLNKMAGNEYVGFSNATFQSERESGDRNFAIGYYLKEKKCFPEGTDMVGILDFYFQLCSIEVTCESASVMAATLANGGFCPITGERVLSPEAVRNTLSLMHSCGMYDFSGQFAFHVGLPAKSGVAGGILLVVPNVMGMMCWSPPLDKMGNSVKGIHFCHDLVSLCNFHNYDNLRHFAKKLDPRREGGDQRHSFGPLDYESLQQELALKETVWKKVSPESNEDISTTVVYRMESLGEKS
Experimental: In this example, the enzymatic activity of glutaminase is measured through a coupled endpoint assay. […] The glutamate produced is converted to 2-OG by a kinetic excess of glutamate dehydrogenase. […] However, a kinetic excess of the third coupling enzyme, diaphorase, recycles NAD from NADH to keep the NAD concentration constant during the timecourse of the assay. Diaphorase, also supplied in kinetic excess, oxidizes NADH produced by GDH back to NAD with the concomitant reduction of rezasurin to the highly fluorescent resorufin. […] A reduction in the signal indicates inhibition of some component of the coupled enzyme system. Prospective hits are counterscreened against GDH/diaphorase alone to remove hits to the coupling enzyme system in a second assay.
2. […] Add 1 μl a compound in 100% DMSO 2. Add 40 μl of Enzyme Mix and incubate for 60 minute at room temperature 3. Add 10 μl of Substrate Mix to start reaction 4.

First: O=C(Cc1ccc(O)cc1)Nc1nnc(CCCCc2nnc(NC(=O)Cc3ccc(O)cc3)s2)s1 [Compound 38, N,N′-(5,5′-(butane-1,4-diyl)bis(1,3,4-thiadiazole-5,2-diyl))bis(2-(4-hydroxyphenyl)acetamide)]
Second: O=C(CCc1ccccc1O)Nc1nnc(CCCCc2nnc(NC(=O)CCc3ccccc3O)s2)s1 [Compound 45]
The IC50 of the first is higher: 100 to 500 nM for the first, < 100 nM for the second. The second is the more potent here.

First: O=C(CCCC(=O)c1ccccc1)Nc1nnc(CCCCc2nnc(NC(=O)CCCC(=O)c3ccccc3)s2)s1 [Compound 40, N,N′-(5,5′-(butane-1,4-diyl)bis(1,3,4-thiadiazole-5,2-diyl))bis(5-oxo-5-phenylpentanamide)]
Second: CC(CC(=O)c1ccccc1)C(=O)Nc1nnc(CCCCc2nnc(NC(=O)C(C)CC(=O)c3ccccc3)s2)s1 (centres unmarked) [Compound 62, N,N′-(5,5′-(butane-1,4-diyl)bis(1,3,4-thiadiazole-5,2-diyl))bis(2-methyl-4-oxo-4-phenylbutanamide)]
The IC50 of the first is lower: < 100 nM for the first, 100 to 500 nM for the second.

First: Cn1c(=O)c2c(ncn2CC(=O)Nc2nnc(CCCCc3nnc(NC(=O)Cn4cnc5c4c(=O)n(C)c(=O)n5C)s3)s2)n(C)c1=O [Compound 41]
Second: Cc1cc(CC(=O)Nc2nnc(CCCCc3nnc(NC(=O)Cc4cc(C)no4)s3)s2)on1 [Compound 42, N,N′-(5,5′-(butane-1,4-diyl)bis(1,3,4-thiadiazole-5,2-diyl))bis(2-(3-methylisoxazol-5-yl)acetamide)]
The IC50 of the first is higher: 1000 to 10000 nM for the first, 100 to 500 nM for the second.

First: COc1ccc2c(c1)C(CC(=O)Nc1nnc(CCCCc3nnc(NC(=O)CC4CC(=O)c5ccc(OC)cc54)s3)s1)CC2=O (centres unmarked) [Compound 43, N,N′-(5,5′-(butane-1,4-diyl)bis(1,3,4-thiadiazole-5,2-diyl))bis(2-(6-methoxy-3-oxo-2,3-dihydro-1H-inden-1-yl)acetamide)]
Second: COc1ccc2[nH]cc(CC(=O)Nc3nnc(CCCCc4nnc(NC(=O)Cc5c[nH]c6ccc(OC)cc56)s4)s3)c2c1 [Compound 61, N,N′-(5,5′-(butane-1,4-diyl)bis(1,3,4-thiadiazole-5,2-diyl))bis(2-(5-methoxy-1H-indol-3-yl)acetamide)]
The IC50 of the first is higher: 100 to 500 nM for the first, < 100 nM for the second.

First: Nc1nnc(CCCCc2nnc(NC(=O)CCc3ccccc3O)s2)s1 [Compound 44]
Second: O=C(CCc1ccco1)Nc1nnc(CCCCc2nnc(NC(=O)CCc3ccco3)s2)s1 [Compound 49, N,N′-(5,5′-(butane-1,4-diyl)bis(1,3,4-thiadiazole-5,2-diyl))bis(3-(furan-2-yl)propanamide)]
The IC50 of the first is higher: 1000 to 10000 nM for the first, 100 to 500 nM for the second. The second is the more potent here.

`CN(CC(=O)Nc1nnc(CCCCc2nnc(NC(=O)CN(C)C(=O)OC(C)(C)C)s2)s1)C(=O)OC(C)(C)C` [Compound 46, Di-tert-butyl 2,2′-(5,5′-(butane-1,4-diyl)bis(1,3,4-thiadiazole-5,2-diyl))bis(azanediyl)bis(2-oxoethane-2,1-diyl)bis(methylcarbamate)] and `CCOC(=O)CCC(=O)Nc1nnc(CCCCc2nnc(NC(=O)CCC(=O)OCC)s2)s1` [Compound 66, Diethyl 4,4′-(5,5′-(butane-1,4-diyl)bis(1,3,4-thiadiazole-5,2-diyl))bis(azanediyl)bis(4-oxobutanoate)] fall in the same range of IC50: 100 to 500 nM for the first, 100 to 500 nM for the second.

First: O=C(Cc1ccccn1)Nc1nnc(CCCCc2nnc(NC(=O)Cc3ccccn3)s2)s1 [Compound 47, N,N′-(5,5′-(butane-1,4-diyl)bis(1,3,4-thiadiazole-5,2-diyl))bis(2-(pyridin-2-yl)acetamide)]
Second: O=C(CCc1nnc(NC(=O)Cc2ccccn2)s1)CCc1nnc(NC(=O)Cc2ccccn2)s1 [Compound 73]
The IC50 of the first is lower: < 100 nM for the first, 500 to 1000 nM for the second. The first is the more potent here.

First: O=C(Cc1ccccc1)Nc1nnc(CCSCc2nnc(NC(=O)Cc3ccccc3)s2)s1 [Compound 48]
Second: O=C(Cc1ccccc1)Nc1nnc(CCS(=O)(=O)Cc2nnc(NC(=O)Cc3ccccc3)s2)s1 [Compound 56]
The IC50 of the first is lower: < 100 nM for the first, 100 to 500 nM for the second. The first is the more potent here.

`CC(C(=O)Nc1nnc(CCCCc2nnc(NC(=O)C(C)c3ccc(N4Cc5ccccc5C4=O)cc3)s2)s1)c1ccc(N2Cc3ccccc3C2=O)cc1` (centres unmarked) [Compound 50, N,N′-(5,5′-(butane-1,4-diyl)bis(1,3,4-thiadiazole-5,2-diyl))bis(2-(4-(1-oxoisoindolin-2-yl)phenyl)propanamide)] and `CC(C(=O)Nc1nnc(CCCCc2nnc(NC(=O)C(C)c3ccc(Cl)cc3)s2)s1)c1ccc(Cl)cc1` (centres unmarked) [Compound 52, N,N′-(5,5′-(butane-1,4-diyl)bis(1,3,4-thiadiazole-5,2-diyl))bis(2-(4-chlorophenyl)propanamide)] fall in the same range of IC50: 100 to 500 nM for the first, 100 to 500 nM for the second.

Compared with `O=C(Cc1cccc2ccccc12)Nc1nnc(CCCCc2nnc(NC(=O)Cc3cccc4ccccc34)s2)s1` [Compound 51, N,N′-(5,5′-(butane-1,4-diyl)bis(1,3,4-thiadiazole-5,2-diyl))bis(2-(naphthalen-1-yl)acetamide)], `O=C(Cc1noc2ccccc12)Nc1nnc(CCCCc2nnc(NC(=O)Cc3noc4ccccc34)s2)s1` [Compound 60, N,N′-(5,5′-(butane-1,4-diyl)bis(1,3,4-thiadiazole-5,2-diyl))bis(2-(benzo[d]isoxazol-3-yl)acetamide)] is lower in IC50: 100 to 500 nM for the first, < 100 nM for the second. The second is the more potent here.

Compared with `COc1cccc(CCC(=O)Nc2nnc(CCCCc3nnc(NC(=O)CCc4cccc(OC)c4)s3)s2)c1` [Compound 53, N,N′-(5,5′-(butane-1,4-diyl)bis(1,3,4-thiadiazole-5,2-diyl))bis(3-(3-methoxyphenyl)propanamide)], `O=C(CCc1cccnc1)Nc1nnc(CCCCc2nnc(NC(=O)CCc3cccnc3)s2)s1` [Compound 54, N,N′-(5,5′-(butane-1,4-diyl)bis(1,3,4-thiadiazole-5,2-diyl))bis(3-(pyridin-3-yl)propanamide)] is higher in IC50: < 100 nM for the first, 500 to 1000 nM for the second.

`O=C(Cc1ccc2c(c1)OCO2)Nc1nnc(CCCCc2nnc(NC(=O)Cc3ccc4c(c3)OCO4)s2)s1` [Compound 55, N,N′-(5,5′-(butane-1,4-diyl)bis(1,3,4-thiadiazole-5,2-diyl))bis(2-(benzo[d][1,3]dioxol-5-yl)acetamide)] and `COc1ccc(CC(=O)Nc2nnc(CCCCc3nnc(NC(=O)Cc4ccc(OC)c(OC)c4)s3)s2)cc1OC` [Compound 63, N,N′-(5,5′-(butane-1,4-diyl)bis(1,3,4-thiadiazole-5,2-diyl))bis(2-(3,4-dimethoxyphenyl)acetamide)] cannot be ordered by IC50: < 100 nM for the first, < 100 nM for the second.

Compared with `O=C(Cc1ccccn1)Nc1nnc(CCSCc2nnc(NC(=O)Cc3ccccn3)s2)s1` [Compound 57], `COc1ccccc1OCC(=O)Nc1nnc(CCCCc2nnc(NC(=O)COc3ccccc3OC)s2)s1` [Compound 74] is higher in IC50: < 100 nM for the first, 100 to 500 nM for the second. The first is the more potent here.

`CC(=O)Oc1cccc(C(=O)Nc2nnc(CCCCc3nnc(NC(=O)c4cccc(OC(C)=O)c4C)s3)s2)c1C` [Compound 58] and `Cc1ccc(OCC(=O)Nc2nnc(CCCCc3nnc(NC(=O)COc4ccc(C)cc4C)s3)s2)c(C)c1` [Compound 65] fall in the same range of IC50: 1000 to 10000 nM for the first, 1000 to 10000 nM for the second.

`O=C(CCN1CCCCC1)Nc1nnc(CCCCc2nnc(NC(=O)CCN3CCCCC3)s2)s1` [Compound 59] and `CC(=O)NCCC(=O)Nc1nnc(CCCCc2nnc(NC(=O)CCNC(C)=O)s2)s1` [Compound 68] fall in the same range of IC50: 1000 to 10000 nM for the first, 1000 to 10000 nM for the second.

`O=C(Nc1nnc(CCCCc2nnc(NC(=O)C3CC=CC3)s2)s1)C1CC=CC1` [Compound 64, N,N′-(5,5′-(butane-1,4-diyl)bis(1,3,4-thiadiazole-5,2-diyl))dicyclopent-3-enecarboxamide] and `O=C(Cc1nn[nH]n1)Nc1nnc(CCCCc2nnc(NC(=O)Cc3nn[nH]n3)s2)s1` [Compound 71, N,N′-(5,5′-(butane-1,4-diyl)bis(1,3,4-thiadiazole-5,2-diyl))bis(2-(1H-tetrazol-5-yl)acetamide)] fall in the same range of IC50: 100 to 500 nM for the first, 100 to 500 nM for the second.

First: Cc1ccc(C)c(OCC(=O)Nc2nnc(CCCCc3nnc(NC(=O)COc4cc(C)ccc4C)s3)s2)c1 [Compound 67]
Second: COc1ccc(CCCC(=O)Nc2nnc(CCCCc3nnc(NC(=O)CCCc4ccc(OC)cc4)s3)s2)cc1 [Compound 75, N,N′-(5,5′-(butane-1,4-diyl)bis(1,3,4-thiadiazole-5,2-diyl))bis(4-(4-methoxyphenyl)butanamide)]
The IC50 of the first is higher: 1000 to 10000 nM for the first, 100 to 500 nM for the second. The second is the more potent here.

Compared with `CC(=O)NCCCC(=O)Nc1nnc(CCCCc2nnc(NC(=O)CCCNC(C)=O)s2)s1` [Compound 70], `CC(=O)CCCCC(=O)Nc1nnc(CCCCc2nnc(NC(=O)CCCCC(C)=O)s2)s1` [Compound 72, N,N′-(5,5′-(butane-1,4-diyl)bis(1,3,4-thiadiazole-5,2-diyl))bis(6-oxoheptanamide)] is lower in IC50: 1000 to 10000 nM for the first, 100 to 500 nM for the second. The second is the more potent here.

Compared with `CCOC(=O)CCCC(=O)Nc1nnc(CCCCc2nnc(NC(=O)CCCC(=O)OCC)s2)s1` [Compound 76, Diethyl 5,5′-(5,5′-(butane-1,4-diyl)bis(1,3,4-thiadiazole-5,2-diyl))bis(azanediyl)bis(5-oxopentanoate)], `CNC(=O)c1nnc(CCSCCc2nnc(C(=O)NC)s2)s1` [Compound 77] is higher in IC50: 100 to 500 nM for the first, 1000 to 10000 nM for the second. The first is the more potent here.
